Assay results taken from the NIST ThermoML archive (doi:10.1016/j.jct.2016.04.001).
Numbers after ± are expanded uncertainties.

Legend:
[1] = 296 K; 101.33 kPa; Crystal; X-ray diffraction
[2] = molar heat capacity at constant pressure; conditions: 101.33 kPa, Crystal, Small sample (50 mg) DSC

| SMILES | mass density [1] [kg/m3] | molar heat capacity at constant pressure ([2]; 283.15 K) [J/K/mol] | molar heat capacity at constant pressure ([2]; 288.15 K) [J/K/mol] | molar heat capacity at constant pressure ([2]; 293.15 K) [J/K/mol] | molar heat capacity at constant pressure ([2]; 298.15 K) [J/K/mol] | molar heat capacity at constant pressure ([2]; 303.15 K) [J/K/mol] | molar heat capacity at constant pressure ([2]; 308.15 K) [J/K/mol] | molar heat capacity at constant pressure ([2]; 313.15 K) [J/K/mol] | molar heat capacity at constant pressure ([2]; 318.15 K) [J/K/mol] | molar heat capacity at constant pressure ([2]; 323.15 K) [J/K/mol] | molar heat capacity at constant pressure ([2]; 328.15 K) [J/K/mol] | molar heat capacity at constant pressure ([2]; 333.15 K) [J/K/mol] | molar heat capacity at constant pressure ([2]; 338.15 K) [J/K/mol] | molar heat capacity at constant pressure ([2]; 343.15 K) [J/K/mol] | molar heat capacity at constant pressure ([2]; 348.15 K) [J/K/mol] | molar heat capacity at constant pressure ([2]; 353.15 K) [J/K/mol] |
| --- | --- | --- | --- | --- | --- | --- | --- | --- | --- | --- | --- | --- | --- | --- | --- | --- |
| CCCCC(O)(Cn1cncn1)c1ccc(Cl)cc1Cl (configuration not stated) | 1331 ± 7 | 342.68 ± 8.7 | 351.02 ± 8.9 | 358.22 ± 9.1 | 364.66 ± 9.2 | 370.65 ± 9.4 | 376.44 ± 9.5 | 382.23 ± 9.7 | 388.15 ± 9.8 | 394.25 ± 10 | 400.53 ± 10 | 406.94 ± 10 | 413.34 ± 10 | 419.55 ± 11 | 425.32 ± 11 | 430.33 ± 11 |
| CC(C)(C)C(O)/C(=C\c1ccc(Cl)cc1Cl)n1cncn1 (configuration not stated) [Diniconazole] | 1323 ± 7 | 360.4 ± 9.1 | 367.41 ± 9.2 | 374.58 ± 9.4 | 381.72 ± 9.6 | 388.72 ± 9.8 | 395.47 ± 9.9 | 401.89 ± 10 | 407.93 ± 10 | 413.6 ± 10 | 418.9 ± 11 | 423.89 ± 11 | 428.65 ± 11 | 433.27 ± 11 | 437.91 ± 11 | 442.73 ± 11 |
